In this assay the target is SsTyrH (heme-dependent L-tyrosine hydroxylase). Description: UV–vis substrate titration. The class given is binding, Streptomyces sclerotialus.

The values that follow come from PMC8283942 (Journal of the American Chemical Society, 2021).

`N[C@@H](Cc1ccc(O)cc1)C(=O)O` [Tyr, L-tyrosine] had a Kd of 109 ± 5 µM.
